# Measurements reported in patent publication US20030224942A1, “Alkylamino-1,3,5-triazines, processes for their preparation and their use as herbicides and plant growth regulators” (priority 2001, published 2003).
# Columns and labels:
# [1] = tested on: Chenopodium spp., Papaver spp., Polygonum spp., Veronica spp. or Viola spp.; assay: Post-emergence effect on weeds (greenhouse pot test, visual scoring); format: in vivo, monocotyledonous and dicotyledonous weeds; settings: treated at three-leaf stage; visual scoring after about 3 to 4 weeks; application rate of 0.5 kg and less of active substance per hectare
# [2] = tested on: Cyperus spp., Echinochloa spp., Digitaria spp., Sagitaria spp. and Scirpus spp.; assay: Action on harmful plants in rice (paddy rice conditions, visual scoring); format: in vivo, typical rice weeds (gramineous and broad-leaved); settings: applied into the dammed water, visual scoring about three weeks after application
# Method in brief: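 Under paddy conditions with 2-3 cm dammed water, transplanted and sown rice plus weeds were treated at three-leaf stage (E. crus-galli at 1.5 leaves). Pots stayed in greenhouse under optimum growth conditions for the test period, with visual assessment of damage.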
structure (smiles),measurement,setting,value
CC#Cc1ccc(C(Nc2nc(N)nc(CC)n2)C2CC2)cc1 (stereo not shown) [Product P9.1583],herbicidal activity post-emergence against harmful plants,[1],very good herbicidal activity
same,herbicidal activity against harmful plants which are typical for rice crops,[2],very good herbicidal activity
CCc1nc(N)nc(NC(c2cccc(C3CC3)c2)C2CC2)n1 (stereo not shown) [Product P9.1603],herbicidal activity post-emergence against harmful plants,[1],very good herbicidal activity
same,herbicidal activity against harmful plants which are typical for rice crops,[2],very good herbicidal activity
CCc1nc(N)nc(NC(c2ccc(C3CC3)cc2)C2CC2)n1 (stereo not shown) [Product P9.1604],herbicidal activity post-emergence against harmful plants,[1],very good herbicidal activity
same,herbicidal activity against harmful plants which are typical for rice crops,[2],very good herbicidal activity
CC(C)c1nc(N)nc(NCc2cccc(C(F)=C(F)F)c2)n1 [Product P11.1567],herbicidal activity post-emergence against harmful plants,[1],very good herbicidal activity
same,herbicidal activity against harmful plants which are typical for rice crops,[2],very good herbicidal activity
CC(C)c1nc(N)nc(NCc2ccc(C(F)=C(F)F)cc2)n1 [Product P11.1568],herbicidal activity post-emergence against harmful plants,[1],very good herbicidal activity
same,herbicidal activity against harmful plants which are typical for rice crops,[2],very good herbicidal activity
C#Cc1cccc(CNc2nc(N)nc(C(C)C)n2)c1 [Product P11.1579],herbicidal activity post-emergence against harmful plants,[1],very good herbicidal activity
same,herbicidal activity against harmful plants which are typical for rice crops,[2],very good herbicidal activity
C#Cc1ccc(CNc2nc(N)nc(C(C)C)n2)cc1 [Product P11.1580],herbicidal activity post-emergence against harmful plants,[1],very good herbicidal activity
same,herbicidal activity against harmful plants which are typical for rice crops,[2],very good herbicidal activity
CC#Cc1cccc(CNc2nc(N)nc(C(C)C)n2)c1 [Product P11.1582],herbicidal activity post-emergence against harmful plants,[1],very good herbicidal activity
same,herbicidal activity against harmful plants which are typical for rice crops,[2],very good herbicidal activity
CC#Cc1ccc(CNc2nc(N)nc(C(C)C)n2)cc1 [Product P11.1583],herbicidal activity post-emergence against harmful plants,[1],very good herbicidal activity
same,herbicidal activity against harmful plants which are typical for rice crops,[2],very good herbicidal activity
CC(C)c1nc(N)nc(NCc2cccc(C3CC3)c2)n1 [Product P11.1603],herbicidal activity post-emergence against harmful plants,[1],very good herbicidal activity
same,herbicidal activity against harmful plants which are typical for rice crops,[2],very good herbicidal activity
CC(C)c1nc(N)nc(NCc2ccc(C3CC3)cc2)n1 [Product P11.1604],herbicidal activity post-emergence against harmful plants,[1],very good herbicidal activity
same,herbicidal activity against harmful plants which are typical for rice crops,[2],very good herbicidal activity
CC(C)c1nc(N)nc(NC(C)c2ccc(F)c(C(F)=C(F)F)c2)n1 (stereo not shown) [Product P12.5],herbicidal activity post-emergence against harmful plants,[1],very good herbicidal activity
same,herbicidal activity against harmful plants which are typical for rice crops,[2],very good herbicidal activity
CC(C)c1nc(N)nc(NC(C)c2cc(F)c(C(F)=C(F)F)c(F)c2)n1 (stereo not shown) [Product P12.49],herbicidal activity post-emergence against harmful plants,[1],very good herbicidal activity
same,herbicidal activity against harmful plants which are typical for rice crops,[2],very good herbicidal activity
C#Cc1ccc(C(C)Nc2nc(N)nc(C(C)C)n2)cc1C (stereo not shown) [Product P12.335],herbicidal activity post-emergence against harmful plants,[1],very good herbicidal activity
same,herbicidal activity against harmful plants which are typical for rice crops,[2],very good herbicidal activity
CC(O)C#Cc1cc(C(C)Nc2nc(N)nc(C(C)C)n2)ccc1F (stereo not shown) [Product P12.840],herbicidal activity post-emergence against harmful plants,[1],very good herbicidal activity
same,herbicidal activity against harmful plants which are typical for rice crops,[2],very good herbicidal activity
CC(C)c1nc(N)nc(NC(C)c2ccc(F)c(C3CC3)c2)n1 (stereo not shown) [Product P12.916],herbicidal activity post-emergence against harmful plants,[1],very good herbicidal activity
same,herbicidal activity against harmful plants which are typical for rice crops,[2],very good herbicidal activity
CC(C)c1nc(N)nc(NC(C)c2cc(F)c(C3CC3)c(F)c2)n1 (stereo not shown) [Product P12.960],herbicidal activity post-emergence against harmful plants,[1],very good herbicidal activity
same,herbicidal activity against harmful plants which are typical for rice crops,[2],very good herbicidal activity
CC(C)c1nc(N)nc(NC(C)c2cccc(C(F)=C(F)F)c2)n1 (stereo not shown) [Product P12.1567],herbicidal activity post-emergence against harmful plants,[1],very good herbicidal activity
same,herbicidal activity against harmful plants which are typical for rice crops,[2],very good herbicidal activity
CC(C)c1nc(N)nc(NC(C)c2ccc(C(F)=C(F)F)cc2)n1 (stereo not shown) [Product P12.1568],herbicidal activity post-emergence against harmful plants,[1],very good herbicidal activity
same,herbicidal activity against harmful plants which are typical for rice crops,[2],very good herbicidal activity
C#Cc1cccc(C(C)Nc2nc(N)nc(C(C)C)n2)c1 (stereo not shown) [Product P12.1579],herbicidal activity post-emergence against harmful plants,[1],very good herbicidal activity
same,herbicidal activity against harmful plants which are typical for rice crops,[2],very good herbicidal activity
CC(C)c1nc(N)nc(NC(C)c2cccc(C3CC3)c2)n1 (stereo not shown) [Product P12.1603],herbicidal activity post-emergence against harmful plants,[1],very good herbicidal activity
same,herbicidal activity against harmful plants which are typical for rice crops,[2],very good herbicidal activity
CC(C)c1nc(N)nc(NC(C)c2ccc(C3CC3)cc2)n1 (stereo not shown) [Product P12.1604],herbicidal activity post-emergence against harmful plants,[1],very good herbicidal activity
same,herbicidal activity against harmful plants which are typical for rice crops,[2],very good herbicidal activity
C#Cc1ccc(C(C)Nc2nc(N)nc(C(C)C)n2)cc1F (stereo not shown) [Product P12.1620],herbicidal activity post-emergence against harmful plants,[1],very good herbicidal activity
same,herbicidal activity against harmful plants which are typical for rice crops,[2],very good herbicidal activity
C#Cc1cc(C(Nc2nc(N)nc(C(C)C)n2)C2CC2)ccc1F (stereo not shown) [Product P14.309],herbicidal activity post-emergence against harmful plants,[1],very good herbicidal activity
same,herbicidal activity against harmful plants which are typical for rice crops,[2],very good herbicidal activity
C#Cc1c(F)cc(C(Nc2nc(N)nc(C(C)C)n2)C2CC2)cc1F (stereo not shown) [Product P14.352],herbicidal activity post-emergence against harmful plants,[1],very good herbicidal activity
same,herbicidal activity against harmful plants which are typical for rice crops,[2],very good herbicidal activity
CC#Cc1cc(C(Nc2nc(N)nc(C(C)C)n2)C2CC2)ccc1F (stereo not shown) [Product P14.384],herbicidal activity post-emergence against harmful plants,[1],very good herbicidal activity
same,herbicidal activity against harmful plants which are typical for rice crops,[2],very good herbicidal activity
CC#Cc1c(F)cc(C(Nc2nc(N)nc(C(C)C)n2)C2CC2)cc1F (stereo not shown) [Product P14.428],herbicidal activity post-emergence against harmful plants,[1],very good herbicidal activity
same,herbicidal activity against harmful plants which are typical for rice crops,[2],very good herbicidal activity
CC(C)c1nc(N)nc(NC(c2cccc(C(F)=C(F)F)c2)C2CC2)n1 (stereo not shown) [Product P14.1567],herbicidal activity post-emergence against harmful plants,[1],very good herbicidal activity
same,herbicidal activity against harmful plants which are typical for rice crops,[2],very good herbicidal activity
CC(C)c1nc(N)nc(NC(c2ccc(C(F)=C(F)F)cc2)C2CC2)n1 (stereo not shown) [Product P14.1568],herbicidal activity post-emergence against harmful plants,[1],very good herbicidal activity
same,herbicidal activity against harmful plants which are typical for rice crops,[2],very good herbicidal activity
C#Cc1cccc(C(Nc2nc(N)nc(C(C)C)n2)C2CC2)c1 (stereo not shown) [Product P14.1579],herbicidal activity post-emergence against harmful plants,[1],very good herbicidal activity
same,herbicidal activity against harmful plants which are typical for rice crops,[2],very good herbicidal activity
C#Cc1ccc(C(Nc2nc(N)nc(C(C)C)n2)C2CC2)cc1 (stereo not shown) [Product P14.1580],herbicidal activity post-emergence against harmful plants,[1],very good herbicidal activity
same,herbicidal activity against harmful plants which are typical for rice crops,[2],very good herbicidal activity
CC#Cc1cccc(C(Nc2nc(N)nc(C(C)C)n2)C2CC2)c1 (stereo not shown) [Product P14.1582],herbicidal activity post-emergence against harmful plants,[1],very good herbicidal activity
same,herbicidal activity against harmful plants which are typical for rice crops,[2],very good herbicidal activity
CC#Cc1ccc(C(Nc2nc(N)nc(C(C)C)n2)C2CC2)cc1 (stereo not shown) [Product P14.1583],herbicidal activity post-emergence against harmful plants,[1],very good herbicidal activity
same,herbicidal activity against harmful plants which are typical for rice crops,[2],very good herbicidal activity
CC(C)c1nc(N)nc(NC(c2cccc(C3CC3)c2)C2CC2)n1 (stereo not shown) [Product P14.1603],herbicidal activity post-emergence against harmful plants,[1],very good herbicidal activity
same,herbicidal activity against harmful plants which are typical for rice crops,[2],very good herbicidal activity
CC(C)c1nc(N)nc(NC(c2ccc(C3CC3)cc2)C2CC2)n1 (stereo not shown) [Product P14.1604],herbicidal activity post-emergence against harmful plants,[1],very good herbicidal activity
same,herbicidal activity against harmful plants which are typical for rice crops,[2],very good herbicidal activity
CC(C)(F)c1nc(N)nc(NCc2ccc(F)c(C(F)=C(F)F)c2)n1 [Product P16.5],herbicidal activity post-emergence against harmful plants,[1],very good herbicidal activity
same,herbicidal activity against harmful plants which are typical for rice crops,[2],very good herbicidal activity
CC(C)(F)c1nc(N)nc(NCc2cc(F)c(C(F)=C(F)F)c(F)c2)n1 [Product P16.49],herbicidal activity post-emergence against harmful plants,[1],very good herbicidal activity
same,herbicidal activity against harmful plants which are typical for rice crops,[2],very good herbicidal activity
C#Cc1cc(CNc2nc(N)nc(C(C)(C)F)n2)ccc1F [Product P16.309],herbicidal activity post-emergence against harmful plants,[1],very good herbicidal activity
same,herbicidal activity against harmful plants which are typical for rice crops,[2],very good herbicidal activity
C#Cc1c(F)cc(CNc2nc(N)nc(C(C)(C)F)n2)cc1F [Product P16.352],herbicidal activity post-emergence against harmful plants,[1],very good herbicidal activity
same,herbicidal activity against harmful plants which are typical for rice crops,[2],very good herbicidal activity
CC#Cc1cc(CNc2nc(N)nc(C(C)(C)F)n2)ccc1F [Product P16.384],herbicidal activity post-emergence against harmful plants,[1],very good herbicidal activity
same,herbicidal activity against harmful plants which are typical for rice crops,[2],very good herbicidal activity
CC#Cc1c(F)cc(CNc2nc(N)nc(C(C)(C)F)n2)cc1F [Product P16.428],herbicidal activity post-emergence against harmful plants,[1],very good herbicidal activity
same,herbicidal activity against harmful plants which are typical for rice crops,[2],very good herbicidal activity
